The values below come from ChEMBL document CHEMBL3352183, “Borrelidin B: isolation, biological activity, and implications for nitrile biosynthesis” (J Nat Prod, 2014).

Active and inactive are the calls of the source. The rule behind the calls is not given here.

One assay deals with HeLa. Briefly: Mitotic arrest in human HeLa cells assessed as accumulation at […] at 0.98 to 30 uM using pHH3 staining-based fluorescent assay. The assay is classed as functional, cell-based.
In another assay the test system is HT-29. As to the kind of experiment: Growth inhibition of human HT-29 cells. The assay is classed as functional, cell-based.
The next assay relates to MDA-MB-361. As to the kind of experiment: Growth inhibition of human MDA-MB-361 cells. The assay is classed as functional, cell-based.
Another assay relates to NCI-N87. As to the kind of experiment: Growth inhibition of human NCI-N87 cells. Format: functional, cell-based.
Assay [1] deals with T1, Threonine--tRNA ligase, mitochondrial (Homo sapiens) (UniProt Q9BW92).
T1 sequence (whole entry): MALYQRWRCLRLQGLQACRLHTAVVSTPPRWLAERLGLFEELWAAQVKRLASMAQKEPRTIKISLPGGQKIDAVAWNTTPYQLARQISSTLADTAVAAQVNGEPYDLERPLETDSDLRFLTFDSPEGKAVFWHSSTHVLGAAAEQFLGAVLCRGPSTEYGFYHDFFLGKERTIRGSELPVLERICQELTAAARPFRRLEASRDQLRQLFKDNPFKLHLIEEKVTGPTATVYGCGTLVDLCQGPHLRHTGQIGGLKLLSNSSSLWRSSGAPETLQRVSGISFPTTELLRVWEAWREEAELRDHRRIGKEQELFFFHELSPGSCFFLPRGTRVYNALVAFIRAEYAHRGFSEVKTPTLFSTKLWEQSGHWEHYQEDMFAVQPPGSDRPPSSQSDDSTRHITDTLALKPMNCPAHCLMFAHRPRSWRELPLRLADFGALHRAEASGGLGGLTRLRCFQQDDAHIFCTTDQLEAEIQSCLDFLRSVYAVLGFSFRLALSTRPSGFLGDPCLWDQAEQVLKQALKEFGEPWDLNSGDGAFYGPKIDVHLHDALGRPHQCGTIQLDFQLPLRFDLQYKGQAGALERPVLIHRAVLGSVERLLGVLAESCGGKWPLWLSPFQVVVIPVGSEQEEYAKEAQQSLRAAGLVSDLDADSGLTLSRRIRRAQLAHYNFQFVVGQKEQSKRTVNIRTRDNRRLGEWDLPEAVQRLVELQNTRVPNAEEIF
As to the kind of experiment: Inhibition of threonyl tRNA synthetase (unknown origin) assessed as depletion of tRNAs at 50 uM by SToPs assay.

Usually IC50 stands for the concentration that gives 50% inhibition. As for `C[C@@H]1C[C@H](C)C[C@H](C)[C@@H](O)CC(=O)O[C@H]([C@@H]2CCC[C@H]2C(=O)O)C/C=C/C=C(/CN)[C@H](O)[C@@H](C)C1`, the Activity result in the assay with HeLa was “Dose-dependent effect”. Besides, the IC50 with HT-29 was 2000 nM; with MDA-MB-361 it was 2200 nM; in the assay on NCI-N87, 1300 nM. For the same compound, the inhibition entry in assay [1] was “Active”.

As to `CC(=O)NC/C1=C/C=C/C[C@@H]([C@@H]2CCC[C@H]2C(=O)O)OC(=O)C[C@H](O)[C@@H](C)C[C@@H](C)C[C@@H](C)C[C@H](C)[C@H]1O`, the outcome with HeLa was inactive. In addition, in assay [1], the inhibition entry is “inactive”.

For `C[C@@H]1C[C@H](C)C[C@H](C)[C@@H](O)CC(=O)O[C@H]([C@@H]2CCC[C@H]2C(=O)O)C/C=C/C=C(/C#N)[C@H](O)[C@@H](C)C1` [BORRELIDIN], the results for the IC50 in the assay on HT-29, in the assay with MDA-MB-361 and in the assay on NCI-N87 were 920 nM, 420 nM and 50 nM, respectively.
